US9445605B2, “Method for disinfection or infection control against a non-enveloped virus” (Hiroshima University, priority 2006, dated 2016)

Columns and labels:
[1] = test system: Adenovirus (nonproliferating, adenovirus type-5-derived); experiment: Adenovirus infectivity after reagent treatment (fluorescent staining of FL cells); assay type: cell-based
Protocol: Monolayer FL cells (cell line contaminated with HeLa cells (derived from human cervical cancer epithelial cells)) on the cover slip (9×28 mm) were washed with PBS one time and then infected with a 50 μL of virus solution. After adsorption for 1 hour, the cells were washed with PBS one time, and then a maintenance solution (the same as the diluent) was added, followed by culture.
Two days after, fluorescent staining was performed with anti-adenovirus antibody (monoclonal antibody: Chemicon MAB805) and Alexa Fluor 488-labeled anti-mouse IgG antibody (SantaCruz Biotechnology), and positive cells were counted in a field of view under a fluorescent microscope (400 times) (average of 20 fields of view was calculated).

[2] = Measurement of pH of the reagents; assay type: physicochemical; conditions: summary Table 9
Source text: Also, the experiment was repeated to confirm reproducibility.

Feline calicivirus = Feline calicivirus infectivity after reagent treatment (TCID50 in CRFK cells); assay type: cell-based; conditions: equal amounts of virus and reagent, 3 minutes at room temperature
Protocol: To eliminate the influence of serum contained in the original virus, a virus solution was previously 5 times diluted with a diluent (Eagle's minimum essential medium, penicillin G, streptomycin). Equal amounts (35 μL) of the diluted virus solution and each reagent were mixed and allowed to react at room temperature for 3 minutes. Then, a ten-fold dilution series was prepared using the diluent.
Monolayer CRFK cells on a 96-well plate were washed with PBS one time and then the diluted virus solution was inoculated (50 μl/well). After incubation with a CO2 incubator for adsorption and penetration of the virus for 1 hour, the cells were washed with PBS one time, and then a maintenance solution (the same as the diluent) was added (100 μL/well), followed by culture. Three days after, the cells were fixed and stained after extension of CPE, and a 50% infectious dose (unit: 50% tissue culture infectious dose [TCID50]) was calculated using a Behrens-Kaerber method to measure viral infectivity.

[3] = test system: Coxsackie virus group B, type 5; experiment: Coxsackie virus infectivity after reagent treatment (TCID50 in FL cells); assay type: cell-based
Protocol: The FL cells were infected with the virus, and a 50% infection dose (unit: 50% tissue culture infectious dose [TCID50]) was calculated.
To eliminate the influence of serum contained in original viruses, a virus solution was previously 50 times diluted with PBS.

Rotavirus Wa Strain = experiment: Rotavirus infectivity after reagent treatment (fluorescent staining of MA104 cells); conditions: equal amounts of virus and reagent, 3 minutes at room temperature; for Residual infectivity after treatment: MA104 cells
Protocol: Equal amounts (35 μL) of a virus solution and a reagent were mixed, followed by reaction at room temperature for 3 minutes. A 10-fold dilution series was formed using a diluent (MEM) and the MA104 cells on a cover slip (9×28 mm) were infected with 50 μL of the virus solution. After adsorption for 1 hour, the cells were washed with PBS one time and a growth medium (10% PBS-MEM) was added, followed by culture.
One day after, fluorescent staining was performed with anti-rotavirus antibody (monoclonal antibody: Abgene REMEI-1) and Alexa Fluor 488-labeled anti-mouse IgG antibody (SantaCruz Biotechnology), and positive cells were counted in a field of view under a fluorescent microscope (400 times) (average area of 20 fields of view). The number of positive cells per cover slip was calculated on the basis of the area of the field of view, and further infectivity per mL of virus solution was calculated (unit: CIU (cell infecting units)/ml; Kiyotani et al., Virology 177:65-74, 1990). When the number of positive cells was small, the positive cells were measured by observing the whole of the cover slip.

[4] = equal amounts of virus and reagent, 3 minutes at room temperature
[5] = equal amounts of virus and reagent, 3 minutes at room temperature, FL cells

CCO [50% (v/v) ethanol, ethanol]
Inactivation activity for adenovirus (in words) [1]: no inactivation ability
Effect (times) (to PBS) [1, 4]: 4 times
Infectivity ratio (to PBS) [1, 4]: 0.2
Residual infectivity after treatment [1, 5]: 7.7E+07 CIU/ml
pH [2]: 5.09
Effect (times) (to PBS) (Feline calicivirus): 12 times
Infectivity ratio (to PBS) (Feline calicivirus): 0.09
Infectivity (TCID50/ml) (Feline calicivirus; CRFK cells): 3.2E+07 TCID50/ml
Anti-Coxsackie virus activity (in words) [3]: no anti-Coxsackie virus activity
Effect (times) (to PBS) [3, 4]: 1 times
Infectivity ratio (to PBS) [3, 4]: 1.778
Infectivity (TCID50/ml) [3, 5]: 3.2E+07 TCID50/ml
Infectivity ratio (to PBS) (Rotavirus Wa Strain): 0.06
Residual infectivity after treatment (Rotavirus Wa Strain): 6.2E+05 CIU/ml

CCO [80% (v/v) ethanol, ethanol]
Infectivity ratio (to PBS) (Rotavirus Wa Strain): 0
Residual infectivity after treatment (Rotavirus Wa Strain): 0 CIU/ml
